The record followed here is patent US10501453B2, “Benzothiazole or benzoxazole compounds as SUMO activators” (Icahn School of Medicine at Mount Sinai, priority 2012, dated 2019).

One experiment deals with Serca2 KO mice. Put plainly: Hemodynamics in Serca2 knockout mice. Format: in vivo, mouse. The conditions noted are these: before vs after infusion. The source says:
Adult mice with an inducible cardiomyocyte-specific excision of the Atp2a2 (Serca2) gene (Serca2 KO) were used. Four weeks after induction of Serca2 gene excision, the mice display a substantial reduction in systolic and diastolic function (FIG. 11a). […] The decay constant, tau value was nearly 1.3-fold (Serca2 KO, […]; WT, […], p<0.001) larger in Serca2 KO mice compared with WT control (FIG. 11b). The expression of SERCA2a was completely lacking in Serca2 KO mice (FIG. 11c).
Hemodynamic parameters obtained before and after infusion of Example 1 were compared. […] The dose-dependent enhancement of cardiac contractility disappeared in Serca2 KO mice (FIG. 6b).

Experiment [1] concerns adult rat ventricular myocytes (ARVMs). Put plainly: Cell shortening/re-lengthening and calcium transient of ARVMs (IonOptix). Format: cell-based.
A further experiment addresses SUMO E2 enzyme, UBC9. In words: Transfer of activated SUMO-1 from SUMO E1 to SUMO E2 enzyme UBC9 (gel-based assay). Format: biochemical.
The test system of experiment [2] is adult rat ventricular myocytes (ARVMs). Put plainly: Cell shortening/re-lengthening and calcium transient of ARVMs (IonOptix). Format: cell-based. The protocol: (§1) Calcium-tolerant adult rat ventricular myocytes (ARVMs) were obtained from hearts of male Sprague-Dawley rats (250 to 300 g). The heart was excised and perfused with a standard enzymatic technique. ARVMs were plated on multi-chambered plates or culture dishes, pre-coated with laminin 2 μg/cm^2, at a density of 10^5 cells/cm^2 in DMEM without L-glutamine supplemented with 10 mmol/l HEPES, 3.7 mg/ml NaHCO3, 1 mg/ml glucose, 0.11 mg/ml sodium pyruvate, 2 mg/ml bovine serum albumin, 2 mmol/1 L-camitine, 5 mmol/1 creatine, 5 mmol/1 taurine, 1% penicillin-streptomycin, and 1% gentamycin. Following isolation, cells were allowed to settle for 1 hour. Cultures were incubated at 37° C., in an atmosphere of 5% CO2-95% air. Fresh medium was added gently as medium was being drawn off until the cultures had been thoroughly washed. Only quiescent, rod-shape cardiac myocytes were selected for IonOptix experiments.
Each compound was added at 10 μM. DMSO was used as a control. After 24 hours at 37° C., SERCA2a SUMOylation and functional analysis were determined.
Mechanical properties of ARVMs were assessed using an IonOptix MyoCam® system (IonOptix, Milton, Mass.). In brief, cells were placed in a Warner chamber mounted on the stage of an inverted microscope (Olympus, IX-70) and superfused (1 ml/min at 30° C.) with a buffer containing 131 mM NaCl, 4 mM KCl, 1 mM CaCh, 1 mM MgCh, 10 mM glucose, and 10 mM HEPES, pH 7.4. ARVMs were field stimulated with suprathreshold voltage and at a frequency of 0.5 Hz. […] SoftEdge software (IonOptix) was used to capture changes in cell length during shortening and re-lengthening.
ARVMs were placed in a chamber on an Olympus IX-70 inverted microscope and imaged through a Fluor 40× oil objective. ARVMs were exposed to light emitted by a 75 W lamp and passed through either a 360 or a 380 nm filter (bandwidths were ±15 nm), while being stimulated to contract at 0.5 Hz. Fluorescence emissions were detected between 480 and 520 nm by a photomultiplier tube after first illuminating cells at 360 nm for 0.5 s then at 380 nm for the duration of the recording protocol (333 Hz sampling rate). The 360 nm excitation scan was repeated at the end of the protocol and qualitative changes in intracellular Ca^2+ concentration ((Ca^2+]i) were inferred from the ratio of the fluorescence intensity at two wavelengths.
(§2) The effects of the Example compound was examined on isolated rat cardiomyocytes shortening and relaxation parameters. […] Effects of Example 1 on mechanical properties of the ARVMs were assessed using a video-based edge detection system (IonOptix). The time constant of the increase of force during the stretch decreased (tau), percentage of peak shortening (PS), maximal rate of relaxation and contraction were analyzed at 24 hrs postincubation of the compounds in culture media (N=10 ARVMs). The mechanical data were analyzed with student's t-test (FIG. 2A, P<0.05 compared to the DMSO treated cells). SERCA2a SUMOylation profiling was analyzed in a same set of ARVMs (FIG. 2B, WCL, whole cell lysates; S-SERCA2a, SUMOylated SERCA2a).
This is another data set of the same source.

The subject of the next experiment is SERCA2a. Put plainly: Endogenous SERCA2a SUMOylation profiling and protein expression in ARVMs. Format: cell-based, rat. The protocol:
as §1
Equal amounts of protein from either small molecule treated or DMSO treated cells or immunoprecipitates were resolved by 7.5% SDS-PAGE and transferred to nitrocellulose membranes (Bio-Rad, catalog no. 162-0112). The membranes were blocked for 1 hour at room temperature with 5% non-fat milk (Cell Signaling Technology Inc., catalog no. 9999) in TBST (10 mM Tris-HCl, 150 mM NaCl, and 0.05% tween-20, pH 8.0). […]
as §2, with “SERCA2a). […]” for “SERCA2a).”

A further experiment concerns sham-operated animals. In words: Hemodynamics in sham-operated mice. Format: in vivo, mouse. The protocol:
Hemodynamics were measured to evaluate the acute effect of Example 1 infusion on the cardiac function of the mouse model of HF. In the first set of experiments, mice were exposed to pressure overload by thoracic aortic constriction (TAC) or sham operation and received either EXAMPLE 1 or vehicle. At two months post-TAC animals developed HF. […] In addition, the positive chronotropic effect of dobutamine was no longer observed in TAC mice (FIG. 9). Following cannulation of the carotid artery and external jugular vein, infusion of EXAMPLE 1 or vehicle was performed as described in Method section. Pressure and conductance catheters were introduced in the LV through the carotid artery. Pressure and volume measurements were made simultaneously and pressure volume curves were constructed as the vehicle or EXAMPLE 1 were infused.
Hemodynamic data were obtained in 1 mg of EXAMPLE 1-treated failing hearts at 30 min and 60 min after compound treatment. […] The improvement occurred within 30 minutes after treatment and maintained for 60 minutes after treatment. […] The effects of EXAMPLE 1 on various hemodynamic parameters are shown in FIG. 9b and Table S1. dP/dt max increased with increasing concentration of EXAMPLE 1 while Tau a parameter of relaxation decreased an indication of enhanced relaxation.

In general, EC50 refers to the midpoint of the concentration-response curve. A higher EC50 goes with lower potency in that assay.

In the case of `COc1ccc(-c2nnc(Nc3nc4c(OC)cccc4s3)o2)cc1` [Example 1, N-(4-methoxybenzo[d]thiazol-2-yl)-5-(4-methoxyphenyl)-1,3,4-oxadiazol-2-amine], the “hemodynamic parameters in Serca2 KO mice” value in the experiment on Serca2 KO mice is “did not induce any improvements”. For the same compound, the “Tau value (dose response)” value in experiment [1] (0.1 μM) turned out to be 1.3 ± 0.0 ms; in experiment [1] (1 μM) it was 1300 ± 100 ms; in experiment [2] (10 μM) it was 1.0 ± 0.1 ms. Also, the “cell contractility (peak shortening), dose response” value in experiment [1] (concentration dependent manner, versus DMSO) is reported as “significantly increased cell contractility”. The EC50 at SUMO E2 enzyme, UBC9 was 10.2 ± 0.28 µM. Moreover, the “effects on mechanical properties of ARVMs (inotropic, lusitropic)” value in experiment [2] (24 hrs, versus DMSO) was “positive inotropic and lusitropic effects”. The “Tau (rate of transient calcium decay)” value in experiment [2] (isolated adult cardiomyocytes, DMSO 2.4±0.2, n=10) was determined as 1.8 ± 0.2 ms. The Peak shortening in experiment [2] (isolated adult cardiomyocytes, DMSO 3.0±0.8, n=10) amounted to 12.0±0.8%. In addition, the “Maximal rate of relaxation” value in experiment [2] (isolated adult cardiomyocytes, DMSO 54.0±2.4, n=10) is reported as 210.7±19.4 μm/sec. For the same compound, in experiment [2] (isolated adult cardiomyocytes, DMSO −64.0±7.9, n=10), the “Maximal rate of contraction” value is −185.5±6.5 μm/sec. In the experiment with SERCA2a (dose response), the “levels of SERCA2a SUMOylation with increasing amount of compound” value is “increased levels of SERCA2a SUMOylation”. Further, in the experiment with SERCA2a (dose response), the “protein expression levels of E1, E2 enzymes, SERCA2a and SUMO-1” value is given as “not changed”. Moreover, the “endogenous SERCA2a SUMOylation” value in the experiment on SERCA2a (isolated rodent adult cardiomyocytes) is “significantly increased”. Also, the “hemodynamic parameters in sham-operated groups” value in the experiment on sham-operated animals is listed as “No statistically significant changes”.
